The numbers were not newly measured in patent US10369185B2, “Methods and compositions for enhancement of ability to concentrate” (KYOWA HAKKO BIO CO., LTD., priority 2014, dated 2019), which cites them from elsewhere.

For this series the following is noted: alanylglutamine compared to glutamine; cited from earlier work.

With `NC(=O)CC[C@H](N)C(=O)O` [glutamine, reference compound], the “solubility in aqueous solutions” value is reported as “low-solubility”.
